Measurements as given in publication PMC6222646, “HIV-1 Integrase-Targeted Short Peptides Derived from a Viral Protein R Sequence” (Molecules : A Journal of Synthetic Chemistry and Natural …, 2018).
Where a SMILES comes first, the peptide text is derived from it.

Tests used:
HIV-1 integrase (IN) [1] = molecular target: T1, HIV-1 integrase (IN) (Human immunodeficiency virus type 1 group M subtype B, UniProt P12497); assay: In vitro integrase catalytic assay, strand transfer (ST); type: biochemical; details: 400 nM IN, 20 nM 32P-labeled pre-cleaved 19T/21B DNA, 37 °C, 2 h
Procedure: (§1) IN reactions were performed as previously described. […] Reactions were performed at 37 °C (2 h) and quenched by the addition of an equal volume of loading buffer (formamide containing 1% sodium dodecyl sulfate, 0.25% bromophenol blue, and xylene cyanol). Reaction products were separated in 16% polyacrylamide denaturing sequencing gels. Dried gels were visualized using a Typhoon 8600 instrument (GE Healthcare, Chicago, IL, USA). Densitometric analyses were performed using ImageQuant 5.1 software (GE Healthcare, Chicago, IL, USA). Data analyses (linear regression, 50% inhibitory concentration [IC50] determination, standard deviation [SD]) were performed from at least 3 independent determinations using Prism 5.0c software from GraphPad (La Jolla, CA, USA). To assay 3′-P inhibitory potency, reactions were carried out with [γ-^32P]-labeled full-length oligonucleotide 21T ([…]) annealed to the complementary oligonucleotide 21B ([…]). Formation of the shorter processed 19T products was monitored and quantified to assess enzyme performance and inhibitor potency. The ST reactions were carried out with the [γ-^32P]-labeled pre-cleaved oligonucleotide 19T ([…]) annealed to the complementary oligonucleotide 21B ([…]) and formation of integration products (longer and slower migrating than the starting 19T substrate) was monitored to assess enzyme performance and inhibitor potency.

HIV-1 integrase (IN) [2] = molecular target: T1, HIV-1 integrase (IN); assay: In vitro integrase catalytic assay, 3'-processing (3'-P); type: biochemical; details: 400 nM IN, 20 nM 32P-labeled 21T/21B DNA, 37 °C, 2 h
Procedure: as §1

Compound	IC50 (HIV-1 integrase (IN) [1])	IC50 (HIV-1 integrase (IN) [2])
CC[C@H](C)[C@H](NC(=O)[C@H](CCCNC(=N)N)NC(=O)[C@H](Cc1ccccc1)NC(=O)[C@H](Cc1c[nH]cn1)NC(=O)[C@@H](NC(=O)[C@@H](N)Cc1ccccc1)[C@@H](C)CC)C(=O)NCC(N)=O [Peptide 1b, FIHFRIG-amide] (H-FIHFRIG-NH2)	7.3 ± 0.8 µM	31.5 ± 6 µM
CC[C@H](C)[C@H](NC(=O)[C@H](CCCNC(=N)N)NC(=O)[C@H](Cc1ccccc1)NC(=O)[C@H](Cc1c[nH]cn1)NC(=O)[C@@H](NC(=O)[C@H](Cc1ccccc1)NC(C)=O)[C@@H](C)CC)C(=O)NCC(N)=O [Peptide 1c, Ac-FIHFRIG-amide] (Ac-FIHFRIG-NH2)	4.7 ± 0.3 µM	23.5 ± 3 µM
CC[C@H](C)[C@H](NC(=O)[C@H](CCCNC(=N)N)NC(=O)[C@H](Cc1ccccc1)NC(=O)[C@H](Cc1c[nH]cn1)NC(=O)[C@@H](NC(=O)[C@@H](N)Cc1ccccc1)[C@@H](C)CC)C(=O)N[C@@H](C)C(=O)O [Peptide 2a, FIHFRIA] (H-FIHFRIA-OH)	34.7 ± 2.3 µM	> 111 µM
CC[C@H](C)[C@H](NC(=O)[C@H](CCCNC(=N)N)NC(=O)[C@H](Cc1ccccc1)NC(=O)[C@H](Cc1c[nH]cn1)NC(=O)[C@@H](NC(=O)[C@@H](N)Cc1ccccc1)[C@@H](C)CC)C(=O)N[C@@H](C)C(N)=O [Peptide 2b, FIHFRIA-amide] (H-FIHFRIA-NH2)	60.6 ± 8 µM	> 111 µM
CC[C@H](C)[C@H](NC(=O)[C@H](CCCNC(=N)N)NC(=O)[C@H](Cc1ccccc1)NC(=O)[C@H](Cc1c[nH]cn1)NC(=O)[C@@H](NC(=O)[C@H](Cc1ccccc1)NC(C)=O)[C@@H](C)CC)C(=O)N[C@@H](C)C(N)=O [Peptide 2c, Ac-FIHFRIA-amide] (Ac-FIHFRIA-NH2)	30.4 ± 0.7 µM	74.5 ± 7 µM
CC[C@H](C)[C@H](NC(=O)[C@@H](N)Cc1ccccc1)C(=O)N[C@@H](Cc1c[nH]cn1)C(=O)N[C@@H](Cc1ccccc1)C(=O)N[C@@H](CCCNC(=N)N)C(=O)N[C@@H](C)C(=O)NCC(=O)O [Peptide 3a, FIHFRAG] (H-FIHFRAG-OH)	22.4 ± 1.7 µM	66.5 ± 7 µM
CC[C@H](C)[C@H](NC(=O)[C@@H](N)Cc1ccccc1)C(=O)N[C@@H](Cc1c[nH]cn1)C(=O)N[C@@H](Cc1ccccc1)C(=O)N[C@@H](CCCNC(=N)N)C(=O)N[C@@H](C)C(=O)NCC(N)=O [Peptide 3b, FIHFRAG-amide] (H-FIHFRAG-NH2)	> 111 µM	> 111 µM
CC[C@H](C)[C@H](NC(=O)[C@H](Cc1ccccc1)NC(C)=O)C(=O)N[C@@H](Cc1c[nH]cn1)C(=O)N[C@@H](Cc1ccccc1)C(=O)N[C@@H](CCCNC(=N)N)C(=O)N[C@@H](C)C(=O)NCC(N)=O [Peptide 3c, Ac-FIHFRAG-amide] (Ac-FIHFRAG-NH2)	28 ± 4 µM	208 ± 12 µM
CC[C@H](C)[C@H](NC(=O)[C@H](C)NC(=O)[C@H](Cc1ccccc1)NC(=O)[C@H](Cc1c[nH]cn1)NC(=O)[C@@H](NC(=O)[C@@H](N)Cc1ccccc1)[C@@H](C)CC)C(=O)NCC(=O)O [Peptide 4a, FIHFAIG] (H-FIHFAIG-OH)	> 111 µM	> 111 µM
CC[C@H](C)[C@H](NC(=O)[C@H](C)NC(=O)[C@H](Cc1ccccc1)NC(=O)[C@H](Cc1c[nH]cn1)NC(=O)[C@@H](NC(=O)[C@@H](N)Cc1ccccc1)[C@@H](C)CC)C(=O)NCC(N)=O [Peptide 4b, FIHFAIG-amide] (H-FIHFAIG-NH2)	> 111 µM	> 111 µM
CC[C@H](C)[C@H](NC(=O)[C@H](C)NC(=O)[C@H](Cc1ccccc1)NC(=O)[C@H](Cc1c[nH]cn1)NC(=O)[C@@H](NC(=O)[C@H](Cc1ccccc1)NC(C)=O)[C@@H](C)CC)C(=O)NCC(N)=O [Peptide 4c, Ac-FIHFAIG-amide] (Ac-FIHFAIG-NH2)	81 ± 9 µM	> 333 µM
CC[C@H](C)[C@H](NC(=O)[C@H](CCCNC(=N)N)NC(=O)[C@H](C)NC(=O)[C@H](Cc1c[nH]cn1)NC(=O)[C@@H](NC(=O)[C@@H](N)Cc1ccccc1)[C@@H](C)CC)C(=O)NCC(=O)O [Peptide 5a, FIHARIG] (H-FIHARIG-OH)	46.6 ± 6.5 µM	> 111 µM
CC[C@H](C)[C@H](NC(=O)[C@H](CCCNC(=N)N)NC(=O)[C@H](C)NC(=O)[C@H](Cc1c[nH]cn1)NC(=O)[C@@H](NC(=O)[C@@H](N)Cc1ccccc1)[C@@H](C)CC)C(=O)NCC(N)=O [Peptide 5b, FIHARIG-amide] (H-FIHARIG-NH2)	> 111 µM	> 111 µM
CC[C@H](C)[C@H](NC(=O)[C@H](CCCNC(=N)N)NC(=O)[C@H](C)NC(=O)[C@H](Cc1c[nH]cn1)NC(=O)[C@@H](NC(=O)[C@H](Cc1ccccc1)NC(C)=O)[C@@H](C)CC)C(=O)NCC(N)=O [Peptide 5c, Ac-FIHARIG-amide] (Ac-FIHARIG-NH2)	117 ± 10 µM	> 333 µM
CC[C@H](C)[C@H](NC(=O)[C@H](CCCNC(=N)N)NC(=O)[C@H](Cc1ccccc1)NC(=O)[C@H](C)NC(=O)[C@@H](NC(=O)[C@@H](N)Cc1ccccc1)[C@@H](C)CC)C(=O)NCC(=O)O [Peptide 6a, FIAFRIG] (H-FIAFRIG-OH)	6.7 ± 1 µM	17.4 ± 2 µM
CC[C@H](C)[C@H](NC(=O)[C@H](CCCNC(=N)N)NC(=O)[C@H](Cc1ccccc1)NC(=O)[C@H](C)NC(=O)[C@@H](NC(=O)[C@@H](N)Cc1ccccc1)[C@@H](C)CC)C(=O)NCC(N)=O [Peptide 6b, FIAFRIG-amide] (H-FIAFRIG-NH2)	35 ± 3.2 µM	95.4 ± 5 µM
CC[C@H](C)[C@H](NC(=O)[C@H](CCCNC(=N)N)NC(=O)[C@H](Cc1ccccc1)NC(=O)[C@H](C)NC(=O)[C@@H](NC(=O)[C@H](Cc1ccccc1)NC(C)=O)[C@@H](C)CC)C(=O)NCC(N)=O [Peptide 6c, Ac-FIAFRIG-amide] (Ac-FIAFRIG-NH2)	3.5 ± 0.3 µM	94 ± 13 µM
CC[C@H](C)[C@H](NC(=O)[C@H](CCCNC(=N)N)NC(=O)[C@H](Cc1ccccc1)NC(=O)[C@H](Cc1c[nH]cn1)NC(=O)[C@H](C)NC(=O)[C@@H](N)Cc1ccccc1)C(=O)NCC(=O)O [Peptide 7a, FAHFRIG] (H-FAHFRIG-OH)	73.5 ± 6 µM	> 111 µM
CC[C@H](C)[C@H](NC(=O)[C@H](CCCNC(=N)N)NC(=O)[C@H](Cc1ccccc1)NC(=O)[C@H](Cc1c[nH]cn1)NC(=O)[C@H](C)NC(=O)[C@@H](N)Cc1ccccc1)C(=O)NCC(N)=O [Peptide 7b, FAHFRIG-amide] (H-FAHFRIG-NH2)	> 111 µM	> 111 µM
CC[C@H](C)[C@H](NC(=O)[C@H](CCCNC(=N)N)NC(=O)[C@H](Cc1ccccc1)NC(=O)[C@H](Cc1c[nH]cn1)NC(=O)[C@H](C)NC(=O)[C@H](Cc1ccccc1)NC(C)=O)C(=O)NCC(N)=O [Peptide 7c, Ac-FAHFRIG-amide] (Ac-FAHFRIG-NH2)	127 ± 14 µM	> 333 µM
CC[C@H](C)[C@H](NC(=O)[C@H](C)N)C(=O)N[C@@H](Cc1c[nH]cn1)C(=O)N[C@@H](Cc1ccccc1)C(=O)N[C@@H](CCCNC(=N)N)C(=O)N[C@H](C(=O)NCC(=O)O)[C@@H](C)CC [Peptide 8a, AIHFRIG] (H-AIHFRIG-OH)	22.7 ± 1.4 µM	86.3 ± 5 µM
CC[C@H](C)[C@H](NC(=O)[C@H](C)N)C(=O)N[C@@H](Cc1c[nH]cn1)C(=O)N[C@@H](Cc1ccccc1)C(=O)N[C@@H](CCCNC(=N)N)C(=O)N[C@H](C(=O)NCC(N)=O)[C@@H](C)CC [Peptide 8b, AIHFRIG-amide] (H-AIHFRIG-NH2)	> 111 µM	> 111 µM
